5 molecules from ChEMBL document CHEMBL1201862, “PubChem BioAssay data set” (2004) can be followed below.

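Five compound concentrations were applied to cells in 96-well plates for 48 hours; endpoints were derived by simple linear interpolation of the resulting dose-response curve. Here, GI50 denotes the concentration required for 50% inhibition of growth.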 Calls of active or inactive are those of the source. Cut-off read from the data, not from the text of the source: active = GI50 up to about 1.1 µM and inactive = higher.

Some test systems named below: BT-549; HCC 2998; SNB-19; PC-3; HCT-15; NCI-H226; SNB-75; COLO 205; OVCAR-4; NCI/ADR-RES; LOX IMVI; MOLT-4; SK-MEL-28; RXF 393; HCT-116; NCI-H460; K562; SF-268; MDA-MB-435; M14.
Experiment in all cases: NCI-60 cell line screen, 48 h

In the case of `CN(C)/C=N/S(=O)(=O)c1nn2c(C=O)c(-c3ccc(-c4ccc([N+](=O)[O-])cc4)o3)nc2s1`, the GI50 in the experiment on BT-549 was 1.72 µM (inactive); with HCC 2998, 5.33 µM (inactive); in the experiment on SNB-19, 13.9 µM (inactive); in the experiment on PC-3, 3.37 µM (inactive); in the experiment on HCT-15 it was 2.21 µM; in the experiment with NCI-H226, 20.5 µM (inactive). Moreover, the GI50 is 9.18 µM (inactive) in the experiment with SNB-75; 1.99 µM (inactive) in the experiment with COLO 205; 3.54 µM (inactive) in the experiment with OVCAR-4; 8.15 µM (inactive) in the experiment with NCI/ADR-RES; 2.33 µM (inactive) in the experiment with LOX IMVI; 1.19 µM (inactive) with MOLT-4. Moreover, the GI50 was 2.4 µM (inactive) in the experiment on SK-MEL-28; 1.91 µM (inactive) in the experiment with RXF 393; 1.34 µM (inactive) in the experiment with HCT-116; 1.63 µM (inactive) in the experiment with NCI-H460; 1.1 µM (active) in the experiment with K562; 4.61 µM (inactive) in the experiment with SF-268. The GI50 in the experiment with MDA-MB-435 is 2.68 µM (inactive); in the experiment with M14 it was 2.12 µM (inactive).
Regarding `O=C(NCCCCCN1CCC2(CCCCC2)CC1)C(C1CCCCC1)C1CCCCC1`, the GI50 in the experiment with BT-549 was 5.87 µM (inactive); with HCC 2998, 1.3 µM (inactive); in the experiment with SNB-19, 5.73 µM (inactive); with PC-3, 2.77 µM (inactive); in the experiment with HCT-15, 3.08 µM; in the experiment with NCI-H226 it was 3.67 µM (inactive). The GI50 is 4.12 µM (inactive) in the experiment with SNB-75; 1.45 µM (inactive) in the experiment on COLO 205; 3.59 µM (inactive) in the experiment on OVCAR-4; 3.18 µM (inactive) in the experiment with NCI/ADR-RES; 2.7 µM (inactive) in the experiment with LOX IMVI; 1.9 µM (inactive) with MOLT-4. Further, the GI50 is 1.83 µM (inactive) with SK-MEL-28; 4.24 µM (inactive) in the experiment with RXF 393; 4.44 µM (inactive) with HCT-116; 2.45 µM (inactive) with NCI-H460; 1.52 µM (inactive) in the experiment with K562; 5.35 µM (inactive) in the experiment with SF-268. Further, the GI50 with MDA-MB-435 is 1.85 µM (inactive); in the experiment on M14 it was 1.68 µM (inactive).
As for `O=C(NCP(=O)(c1ccccc1)c1ccccc1)OCc1ccccc1`, the GI50 is > 100 µM (inactive) with BT-549; > 100 µM (inactive) with HCC 2998; > 100 µM (inactive) with SNB-19; 64.3 µM (inactive) in the experiment on PC-3; more than 100 µM in the experiment with HCT-15; > 100 µM (inactive) in the experiment on NCI-H226. Moreover, the GI50 in the experiment with SNB-75 is 6.65 µM (inactive); in the experiment with COLO 205, > 100 µM (inactive); in the experiment with OVCAR-4, 43.5 µM (inactive); in the experiment on NCI/ADR-RES it was 73.5 µM (inactive); in the experiment on LOX IMVI, > 100 µM (inactive); in the experiment on MOLT-4, > 100 µM (inactive). The GI50 in the experiment on SK-MEL-28 is > 100 µM (inactive); in the experiment on RXF 393 it was 82.6 µM (inactive); with HCT-116, > 100 µM (inactive); in the experiment on NCI-H460, > 100 µM (inactive); with K562, > 100 µM (inactive); with SF-268 it was 21.4 µM (inactive). The GI50 in the experiment with MDA-MB-435 and in the experiment with M14 was > 100 µM (inactive) in each case.
On to `CC(=N\N=C\c1ccccn1)/C(C)=N/N=C(C)/C(C)=N/N=C(C)/C(C)=N/N=C/c1ccccn1`, for which the GI50 in the experiment with BT-549 was > 100 µM (inactive); in the experiment on HCC 2998, > 100 µM (inactive); in the experiment on SNB-19, > 100 µM (inactive); in the experiment on PC-3, > 100 µM (inactive); in the experiment on HCT-15 it was more than 100 µM; with NCI-H226 it was > 100 µM (inactive). Moreover, the GI50 in the experiment on SNB-75, with COLO 205, in the experiment on OVCAR-4, in the experiment with NCI/ADR-RES, with LOX IMVI and in the experiment with MOLT-4 was > 100 µM (inactive) in each case. The GI50 in the experiment with SK-MEL-28, in the experiment on RXF 393, in the experiment on HCT-116, in the experiment on NCI-H460, in the experiment with K562 and in the experiment with SF-268 was > 100 µM (inactive) each time. Further, the GI50 in the experiment with MDA-MB-435 and with M14 was > 100 µM (inactive) in each case.
`COc1ccc(-c2cc(-c3ccc(Nc4ccnc5cc(C(F)(F)F)ccc45)cc3)[nH]c(=O)c2C#N)c2ccccc12`: the GI50 with BT-549 was > 58.5 µM (inactive); with HCC 2998, > 100 µM (inactive); in the experiment on SNB-19, 18.8 µM (inactive); with PC-3, > 100 µM (inactive); with HCT-15 it was more than 100 µM; with NCI-H226, > 55.3 µM (inactive). Further, the GI50 was 11.2 µM (inactive) in the experiment on SNB-75; > 37.7 µM (inactive) in the experiment on COLO 205; > 46 µM (inactive) in the experiment on OVCAR-4; > 100 µM (inactive) in the experiment with NCI/ADR-RES; 24.2 µM (inactive) in the experiment on LOX IMVI; > 100 µM (inactive) with MOLT-4. The GI50 with SK-MEL-28 was > 59.7 µM (inactive); in the experiment with RXF 393, 15.2 µM (inactive); in the experiment on HCT-116, 17.5 µM (inactive); in the experiment on NCI-H460, > 100 µM (inactive); in the experiment on K562, > 100 µM (inactive); in the experiment on SF-268, 38.1 µM (inactive). Besides, the GI50 with MDA-MB-435 is > 33.7 µM (inactive); with M14 it was > 42.7 µM (inactive).
